# Experimental data: patent publication US8044095B2, “Mixture of catechins or rather polyphenols extracted from chinese green tea or other vegetables for the prevention of prostate cancer and for the treatment of prostate hypertrophy (BPH)” (Genprofiler s.r.l., priority 2004, dated 2011)
# Tests used:
# [1] = test system: normal human prostate epithelial cells (EPIT); test: Dose-response growth study in normal human prostate epithelial cells (EPIT); assay type: cell-based; conditions: increasing quantities of EGCG, cells in culture
# [2] = in vivo; cited from earlier work
# PNT1a = test: Dose-response growth study in SV40-immortalized human prostate epithelial cells (PNT1a), compared with PC-3; assay type: cell-based; conditions: PNT1a versus PC-3 cells
# [3] = test system: prostate cancer in rats TRAMP; conditions: rat, in vivo
# Text: To show the validity of this hypothesis we worked on a preclinical animal model of […]. One of the more important preclinical models for the study of prostate tumor in vivo consists of transgenic rats TRAMP. These animals, when recombinant homozygotes develop prostate cancer with 100% probability in the adult stage. Progress of the illness recapitulates the essential phases of onset and progress of the human ailment. Indeed, it begins with lesions of the Prostate Intraepithelial Neoplasia (PIN) type to then give full blown neoplastic histological lesions, evolve subsequently towards androgen-resistant and aggressive phenotypes, then originating extraprostate and metastatic lesions in the terminal phase. […] Reduction of the onset of this neoplasia in treated animals was 80% (only 20 cases of neoplasia in 100 against 100 out of 100 in untreated animals).
Compound,growth of EPIT [1],half-life in plasma [2],IC50 of EGCG in PNT1a relative to PC-3 (PNT1a),adverse or collateral effect in vitro and in the animal model [3]
"O=C(O[C@@H]1Cc2c(O)cc(O)cc2O[C@@H]1c1cc(O)c(O)c(O)c1)c1cc(O)c(O)c(O)c1 [EGCG, (−)-epigallocatechina-3-gallato]",not modified significantly,over 5 hours,very lower than in PC-3,
catechins,,,,did not witness any adverse or collateral effect
